Where two headings read alike, the source gives them in different places.
Tests used:
JCPyV strain Mad-4 = assay: JCPyV replication assay in COS-7 cells (qPCR); assay type: cell-based, human polyomavirus; conditions: Polyomavirus sp.; JCPyV strain Mad-4 in COS-7 cells, n = 1
Method: Primary human foreskin fibroblasts (HFFs; obtained from clinical samples at Children’s Hospital in Erlangen, Germany), guinea pig embryonic fibroblasts (GPEFs; generously provided by Mark R. Schleiss from the University of Minnesota in Minneapolis, MN, USA), and rat embryonic fibroblasts were cultivated in Eagle’s Minimal Essential Medium (MEM) supplemented with 1 × GlutaMAX™ (both from Thermo Fisher Scientific, Waltham, MA, USA), 10 µg/mL gentamicin, and 10% fetal bovine serum (FBS; Capricorn, Ebsdorfergrund, Germany). Human glioblastoma–astrocytoma cell line (U373) and mouse embryonic fibroblasts (MEFs), both obtained from ATCC (Manassas, VA, USA), and Vero cell sublineage 76 [26], were cultivated in Dulbecco’s modified Eagle’s medium (DMEM) supplemented with 1 × GlutaMAX™, 10 µg/mL gentamicin, and 10% fetal bovine serum. All cultured cells were maintained under the conditions of 37 °C temperature, 5% CO2, and 80% humidity. […]
A variety of antiherpesviral and non-herpesviral drug activities were assessed by the cell culture-based viral replication systems, as described elsewhere. […] After incubation at 37 °C for 3 days, iSLK.219 cells were fixed with 10% formalin, washed with PBS, and used for a quantitation of RFP reporter signal by PicoMD counting (ImageXpress® Pico device, Molecular Devices LLC, San Jose, CA, USA). […]

RhCMV-GFP = RhCMV-GFP replication assay in HFFs; assay type: cell-based, rhesus cytomegalovirus; conditions: in Macaca mulatta, read-out: EC50 RhCMV
Text: Similarly, 2 × 10^4 primary embryonic guinea pig fibroblasts GPEFs/96-well, or 1.35 × 10^4 HFFs/96-well, or 2 × 10^4 rat REFs/96-well, or 2 × 10^4 murine MEFs/96-well, were cultivated for infection with GPCMV-GFP, RhCMV-GFP, ChCMV, RCMV-mCherry, or MCMV-GFP, respectively (all approx. MOI of 0.01 referring to 1 × TCID25), and were used for the assessment of antiviral drug activity. To this end, cells were fixed 7 d p.i. (RCMV-mCherry 4 d p.i.), before GFP or mCherry expression was quantified using the Victor X4 microplate reader, or other viral replication markers were measured as explained for the individual experiments. ChCMV replication in HFFs was monitored and quantified by the use of Anti-Cytomegalovirus Antibody Alexa Fluor™ 488. For immunofluorescence staining with Anti-Cytomegalovirus Antibody Alexa Fluor™ 488 (Sigma Aldrich, St. Louis, MO, USA; solution in PBS with 1% FCS), the infected cells were fixed at 7 d p.i. with 10% formalin and permeabilized with 0.2% Triton-x-100. Cell nuclei were counterstained using Höchst dye to be measured using the ImageXpress Pico (Molecular Devices, LLC, San Jose, CA, USA). Mean EC50 values of antiviral efficacy were calculated on the basis of three experimental replicates or as indicated (measurement of fluorescence values in quadruplicate), and percentage values were provided relative to the solvent control (DMSO).

[1] = Neutral Red uptake cell viability assay in mock-infected HFFs; assay type: cell-based; conditions: human, read-out: CC50 Mock-inf.
Method: To address cell viability after compound treatment, a NR uptake assay was performed. Uninfected cells were seeded at equal numbers as for antiviral replication assays and treated with compounds or solvent control. The treatment was performed for HFFs (7 d), U373 (14 d), A549 (3 d), J-Jhan (14 d), and non-dox-induced iSLK.219 cells (3 d). At the end of the treatment period, 40 µg/mL of Neutral Red (NR) was added and incubated for 2–4 h at 37 °C, before the NR-containing supernatant was removed. Cells were destained using a solution containing 50% ethanol, 1% acetic acid, and 49% water. NR fluorescence was quantified using the Victor X4 microplate reader (PerkinElmer, Waltham, MA, USA) (560/630 nm). For the AB cell viability assay, which was also used to quantify virus-induced cytopathogenicity (particularly in the case of GPCMV in GPEFs), cells were seeded at equal numbers as for antiviral replication assays and incubated with a medium containing 25 ng/mL AB (resazurin; Ann Arbor, MI, USA), incubated for 6 h at 37 °C, and used for measurement identical with NR.

[2] = mock-infected (uninfected) HFFs

Structure (SMILES)	EC50 (JCPyV strain Mad-4) [nM]	EC50 (RhCMV-GFP) [nM]	CC50 at 7 d ([1]; HFF) [nM]	CC50 at 7 d [1, 2] [nM]
Cn1ncc2cc(-c3cnc(N)c(Cl)c3N3CCC4(CCNC4=O)CC3)ccc21 [CCT-151921]	3670 ± 3000	2.48 ± 1.63	> 100000	
Cc1n[nH]c2ncc(C(=O)N3CCC[C@H]3c3ccc(Cl)cc3)cc12 [MSC-2530818]		2.17 ± 1.37		> 100000
CN(C)C(=O)Cn1cc(-c2ccc(-c3cncc4ccccc34)cc2)cn1 [BI-1347]	860 ± 1550	0.4 ± 0.48		> 100000

Reference: publication PMC11435438, “Cyclin-Dependent Kinase 8 Represents a Positive Regulator of Cytomegalovirus Replication and a Novel Host Target for Antiviral Strategies” (Pharmaceutics, 2024)
